Results reported in ChEMBL document CHEMBL4715814, “Design, synthesis and biological activity evaluation of novel 4-subtituted 2-naphthamide derivatives as AcrB inhibitors” (2018).
The source made the active and inactive calls. The rule behind the calls is not given here.

Assays:
Escherichia coli [1] = test: Potentiation of chloramphenicol-induced antibacterial activity against wild type Escherichia coli BW25113 assessed as fold reduction in chloramphenicol MIC at 128 ug/ml incubated for 18 hrs under aerobic condition by checkerboard titration assay relative to chloramphenicol MIC alone; format: functional; details: dose 128 µg/ml
Escherichia coli [2] = test: Potentiation of chloramphenicol-induced antibacterial activity against wild type Escherichia coli BW25113 assessed as fold reduction in chloramphenicol MIC at 256 ug/ml incubated for 18 hrs under aerobic condition by checkerboard titration assay relative to chloramphenicol MIC alone; format: functional; details: dose 256 µg/ml
Escherichia coli [3] = test: (§1) Antibacterial activity against Wild type Escherichia coli BW25113 assessed as inhibition of AcrB efflux pump by mesuring the glucose-induced nile red efflux at 500 uM preincubated with CCCP for 15 mins followed by compound addition after 15 mins nile red added and incubated for 3 hrs in shaker by fluorimetric analysis; format: functional, organism-based; details: time 195.0 min
Cell membrane [4] = test: Induction of outer membrane permeabilization in wild type Escherichia coli BW25113 assessed as increase in nitrocefin hydrolysis at 512 ug/ml measured for 30 mins in presence of CCCP by spectrophotometry analysis; format: subcellular; details: dose 512.0 µg/ml
Escherichia coli [5] = test: Potentiation of chloramphenicol-induced antibacterial activity against AcrB deficient Escherichia coli BW25113 assessed as chloramphenicol MIC at 256 ug/ml incubated for 18 hrs under aerobic condition by checkerboard titration assay (reference value: 2 ug/ml); format: functional; details: dose 256 µg/ml
Escherichia coli [6] = test: Potentiation of TPP-induced antibacterial activity against AcrB deficient Escherichia coli BW25113 assessed as TPP MIC at 256 ug/ml incubated for 18 hrs under aerobic condition by checkerboard titration assay (reference value: 256 ug/ml); format: functional; details: dose 256 µg/ml
Escherichia coli [7] = test: Potentiation of erythromycin-induced antibacterial activity against AcrB deficient Escherichia coli BW25113 assessed as erythromycin MIC at 256 ug/ml incubated for 18 hrs under aerobic condition by checkerboard titration assay (reference value: 32 ug/ml); format: functional; details: dose 256 µg/ml
Escherichia coli [8] = test: Potentiation of TPP-induced antibacterial activity against wild type Escherichia coli BW25113 assessed as TPP MIC at 256 ug/ml incubated for 18 hrs under aerobic condition by checkerboard titration assay (reference value: 1024 ug/ml); format: functional; details: dose 256 µg/ml
Escherichia coli [9] = test: Potentiation of TPP-induced antibacterial activity against wild type Escherichia coli BW25113 assessed as TPP MIC at 128 ug/ml incubated for 18 hrs under aerobic condition by checkerboard titration assay (reference value: 1024 ug/ml); format: functional; details: dose 128 µg/ml
Escherichia coli [10] = test: Potentiation of chloramphenicol-induced antibacterial activity against wild type Escherichia coli BW25113 assessed as chloramphenicol MIC at 256 ug/ml incubated for 18 hrs under aerobic condition by checkerboard titration assay (reference value: 16 ug/ml); format: functional; details: dose 256 µg/ml
Escherichia coli [11] = test: Potentiation of chloramphenicol-induced antibacterial activity against wild type Escherichia coli BW25113 assessed as chloramphenicol MIC at 128 ug/ml incubated for 18 hrs under aerobic condition by checkerboard titration assay (reference value: 16 ug/ml); format: functional; details: dose 128 µg/ml
Escherichia coli [12] = test: Potentiation of rifampicin-induced antibacterial activity against wild type Escherichia coli BW25113 assessed as rifampicin MIC at 128 ug/ml incubated for 18 hrs under aerobic condition by checkerboard titration assay (reference value: 16 ug/ml); format: functional; details: dose 128 µg/ml
Escherichia coli [13] = test: Potentiation of rifampicin-induced antibacterial activity against wild type Escherichia coli BW25113 assessed as rifampicin MIC at 256 ug/ml incubated for 18 hrs under aerobic condition by checkerboard titration assay (reference value: 16 ug/ml); format: functional; details: dose 256 µg/ml
Cell membrane [14] = test: Disruption of inner membrane potential in wild type Escherichia coli BW25113 at 512 ug/ml preincubated for 10 mins followed by glucose stimulation and CCCP addition by DiOC2 probe based fluorimetric analysis; format: subcellular; details: dose 512.0 µg/ml
Escherichia coli [15] = test: Potentiation of erythromycin-induced antibacterial activity against wild type Escherichia coli BW25113 assessed as erythromycin MIC at 256 ug/ml incubated for 18 hrs under aerobic condition by checkerboard titration assay (reference value: 128 ug/ml); format: functional; details: dose 256 µg/ml
Escherichia coli [16] = test: Potentiation of erythromycin-induced antibacterial activity against wild type Escherichia coli BW25113 assessed as erythromycin MIC at 128 ug/ml incubated for 18 hrs under aerobic condition by checkerboard titration assay (reference value: 128 ug/ml); format: functional; details: dose 128 µg/ml
Escherichia coli [17] = test: Potentiation of erythromycin-induced antibacterial activity against wild type Escherichia coli BW25113 assessed as fold reduction in erythromycin MIC at 128 ug/ml incubated for 18 hrs under aerobic condition by checkerboard titration assay relative to erythromycin MIC alone; format: functional; details: dose 128 µg/ml
Escherichia coli [18] = test: as §1, with “200” for “500”; format: functional, organism-based; details: time 195.0 min
Escherichia coli [19] = test: Potentiation of TPP-induced antibacterial activity against AcrB deficient Escherichia coli BW25113 assessed as TPP MIC at 128 ug/ml incubated for 18 hrs under aerobic condition by checkerboard titration assay (reference value: 256 ug/ml); format: functional; details: dose 128 µg/ml
Escherichia coli [20] = test: Potentiation of chloramphenicol-induced antibacterial activity against AcrB deficient Escherichia coli BW25113 assessed as chloramphenicol MIC at 128 ug/ml incubated for 18 hrs under aerobic condition by checkerboard titration assay (reference value: 2 ug/ml); format: functional; details: dose 128 µg/ml
Escherichia coli [21] = test: Potentiation of erythromycin-induced antibacterial activity against AcrB deficient Escherichia coli BW25113 assessed as erythromycin MIC at 128 ug/ml incubated for 18 hrs under aerobic condition by checkerboard titration assay (reference value: 32 ug/ml); format: functional; details: dose 128 µg/ml

For CC(C)CCOc1cc(C(=O)NCc2ccccc2Cl)cc2ccccc12, the “fold change (FC)” value (Escherichia coli [1]) was 4, the “fold change (FC)” value (Escherichia coli [2]) was 8 and the Activity (Escherichia coli [3]) was “Active”. For the same compound, the Activity (Cell membrane [4]) was “inactive”, the MIC (Escherichia coli [5]) was 2 µg/mL and the MIC (Escherichia coli [6]) was 256 µg/mL. For the same compound, the MIC (Escherichia coli [7]) was 32 µg/mL, the MIC (Escherichia coli [8]) was 1020 µg/mL and the MIC (Escherichia coli [9]) was 1020 µg/mL. For the same compound, the MIC (Escherichia coli [10]) was 2 µg/mL, the MIC (Escherichia coli [11]) was 4 µg/mL and the MIC (Escherichia coli [12]) was 16 µg/mL. The MIC (Escherichia coli [13]) was 16 µg/mL, the Activity (Cell membrane [14]) was “Active” and the MIC (Escherichia coli [15]) was 128 µg/mL. For the same compound, the MIC (Escherichia coli [16]) was 128 µg/mL and the “fold change (FC)” value (Escherichia coli [17]) was 4.

NC(=O)c1cc(OCCOc2ccccc2N)c2ccccc2c1 was tested, and the Activity (Escherichia coli [3]) was “Active”, the Activity (Cell membrane [4]) was “Active” and the MIC (Escherichia coli [5]) was 2 µg/mL. It also gave an MIC (Escherichia coli [6]) of 256 µg/mL, an MIC (Escherichia coli [7]) of 32 µg/mL and an MIC (Escherichia coli [8]) of 1020 µg/mL. It also gave an MIC (Escherichia coli [9]) of 1020 µg/mL, an MIC (Escherichia coli [10]) of 4 µg/mL and an MIC (Escherichia coli [11]) of 8 µg/mL. The MIC (Escherichia coli [12]) was 16 µg/mL, the MIC (Escherichia coli [13]) was 16 µg/mL and the Activity (Cell membrane [14]) was “Active”. It also gave an MIC (Escherichia coli [15]) of 128 µg/mL and an MIC (Escherichia coli [16]) of 128 µg/mL.

In the case of COc1ccc(CNC(=O)c2cc(OCCC(C)C)c3ccccc3c2)cc1, the Activity (Escherichia coli [3]) was “inactive”, the MIC (Escherichia coli [5]) was 2 µg/mL and the MIC (Escherichia coli [6]) was 256 µg/mL. It also gave an MIC (Escherichia coli [7]) of 32 µg/mL, an MIC (Escherichia coli [8]) of 1020 µg/mL and an MIC (Escherichia coli [9]) of 1020 µg/mL. For the same compound, the MIC (Escherichia coli [10]) was 16 µg/mL, the MIC (Escherichia coli [11]) was 16 µg/mL and the MIC (Escherichia coli [12]) was 16 µg/mL. For the same compound, the MIC (Escherichia coli [13]) was 16 µg/mL, the MIC (Escherichia coli [15]) was 32 µg/mL and the MIC (Escherichia coli [16]) was 64 µg/mL.

With COc1ccc(CNC(=O)c2cc(OCc3ccccc3)c3ccccc3c2)cc1 the Activity (Escherichia coli [18]) was “Active”, the Activity (Cell membrane [4]) was “Active” and the MIC (Escherichia coli [5]) was 2 µg/mL. The MIC (Escherichia coli [7]) was 32 µg/mL, the MIC (Escherichia coli [8]) was 1020 µg/mL and the MIC (Escherichia coli [9]) was 1020 µg/mL. The MIC (Escherichia coli [10]) was 4 µg/mL, the MIC (Escherichia coli [11]) was 8 µg/mL and the MIC (Escherichia coli [12]) was 16 µg/mL. The MIC (Escherichia coli [13]) was 4 µg/mL, the MIC (Escherichia coli [15]) was 128 µg/mL and the MIC (Escherichia coli [16]) was 128 µg/mL.

For NC(=O)c1cc(OCCN2CCN(c3ccccc3)CC2)c2ccccc2c1, the “fold change (FC)” value (Escherichia coli [2]) was 8, the Activity (Escherichia coli [18]) was “Active” and the Activity (Cell membrane [4]) was “inactive”. The MIC (Escherichia coli [5]) was 2 µg/mL, the MIC (Escherichia coli [6]) was 256 µg/mL and the MIC (Escherichia coli [7]) was 32 µg/mL. For the same compound, the MIC (Escherichia coli [8]) was 512 µg/mL, the MIC (Escherichia coli [9]) was 1020 µg/mL and the MIC (Escherichia coli [10]) was 2 µg/mL. For the same compound, the MIC (Escherichia coli [11]) was 8 µg/mL, the MIC (Escherichia coli [12]) was 16 µg/mL and the MIC (Escherichia coli [13]) was 16 µg/mL. The Activity (Cell membrane [14]) was “inactive”, the MIC (Escherichia coli [15]) was 128 µg/mL and the MIC (Escherichia coli [16]) was 128 µg/mL.

C#CCNC(=O)c1cc(OCCC(C)C)c2ccccc2c1 was tested, and the “fold change (FC)” value (Escherichia coli [2]) was 8, the Activity (Escherichia coli [3]) was “inactive” and the MIC (Escherichia coli [19]) was 256 µg/mL. The MIC (Escherichia coli [20]) was 2 µg/mL, the MIC (Escherichia coli [5]) was 2 µg/mL and the MIC (Escherichia coli [6]) was 256 µg/mL. The MIC (Escherichia coli [21]) was 32 µg/mL, the MIC (Escherichia coli [7]) was 32 µg/mL and the MIC (Escherichia coli [8]) was 256 µg/mL. The MIC (Escherichia coli [9]) was 1020 µg/mL, the MIC (Escherichia coli [10]) was 2 µg/mL and the MIC (Escherichia coli [11]) was 8 µg/mL. The MIC (Escherichia coli [12]) was 16 µg/mL, the MIC (Escherichia coli [13]) was 16 µg/mL and the Activity (Cell membrane [14]) was “Active”. For the same compound, the MIC (Escherichia coli [15]) was 128 µg/mL and the MIC (Escherichia coli [16]) was 128 µg/mL.

With CC(C)CCOc1cc(C(=O)NCc2ccccc2)cc2ccccc12 the Activity (Cell membrane [4]) was “inactive”, the MIC (Escherichia coli [5]) was 1 µg/mL and the MIC (Escherichia coli [6]) was 256 µg/mL. For the same compound, the MIC (Escherichia coli [7]) was 32 µg/mL, the MIC (Escherichia coli [8]) was 1020 µg/mL and the MIC (Escherichia coli [9]) was 1020 µg/mL. For the same compound, the MIC (Escherichia coli [10]) was 4 µg/mL, the MIC (Escherichia coli [11]) was 8 µg/mL and the MIC (Escherichia coli [12]) was 16 µg/mL. The MIC (Escherichia coli [13]) was 8 µg/mL, the MIC (Escherichia coli [15]) was 32 µg/mL and the MIC (Escherichia coli [16]) was 64 µg/mL.

CC(C)CCOc1cc(C(=O)Nc2ccccc2C(F)(F)F)cc2ccccc12 was tested, and the Activity (Escherichia coli [3]) was “Active”, the Activity (Cell membrane [4]) was “inactive” and the MIC (Escherichia coli [5]) was 2 µg/mL. For the same compound, the MIC (Escherichia coli [6]) was 256 µg/mL, the MIC (Escherichia coli [7]) was 32 µg/mL and the MIC (Escherichia coli [8]) was 1020 µg/mL. The MIC (Escherichia coli [9]) was 1020 µg/mL, the MIC (Escherichia coli [10]) was 4 µg/mL and the MIC (Escherichia coli [11]) was 8 µg/mL. The MIC (Escherichia coli [12]) was 16 µg/mL, the MIC (Escherichia coli [13]) was 16 µg/mL and the Activity (Cell membrane [14]) was “inactive”. For the same compound, the MIC (Escherichia coli [15]) was 32 µg/mL and the MIC (Escherichia coli [16]) was 64 µg/mL.
